Measured values as given in patent US8252723B2, “Substituted 1-(3-pyridinyl)pyrazol-4-ylacetic acids, processes for their preparation and their use as herbicides and plant growth regulators” (Bayer CropScience AG, priority 2006, dated 2012).

system: summer wheat of the cultivar 'Triso'; assay: Plant growth regulation test: culm stabilization of crop plants; type: in vivo; details: application rate of 30 to 300 g of active substance per hectare, treated at stage BBCH 31, culm length measured after ears had formed
Procedure: With stirring, the compound of the formula (I) in question was, in the form of a water-dispersible powder, together with a surfactant (customary adjuvant at an application rate of 1 l/ha), mixed with water such that a homogenous spray liquor was formed, and applied at an application rate of 300 l of water/ha (converted).
Seeds of summer wheat of the cultivar ‘Triso’ were sown at a depth of 1 cm in plant pots and cultivated outdoors until treatment.
The plants were treated on a laboratory track sprayer with spray liquors of the test substances at macrostage 3 after having reached about 10% of the maximum longitudinal growth typical for the cultivar (stage BBCH 31) and, after the treatment, returned outdoors.
After the ears had formed, the length of the culms were measured. The culm stabilization was evaluated as a percentage of the untreated control.

| Compound | longitudinal growth (culm length) of summer wheat |
| --- | --- |
| COC(=O)Cc1c(C)nn(-c2cncc(C)c2)c1-c1ccc(Cl)cc1 [Example 2-51] | effectively shortened |
| COC(=O)Cc1c(C)nn(-c2cnccc2C)c1-c1cccs1 [Example 2-52] | effectively shortened |
| COC(=O)Cc1c(C)nn(-c2cnccc2C)c1-c1sccc1C [Example 2-53] | effectively shortened |
| COC(=O)Cc1c(C)nn(-c2cnccc2C)c1-c1cc(C)cs1 [Example 2-54] | effectively shortened |
| COC(=O)Cc1c(C)nn(-c2cnccc2C)c1-c1ccc(Cl)s1 [Example 2-55] | effectively shortened |
| COC(=O)Cc1c(C)nn(-c2cnccc2C)c1-c1ccsc1 [Example 2-56] | effectively shortened |
| COC(=O)Cc1c(C)nn(-c2cccnc2)c1-c1cccs1 [Example 2-57] | effectively shortened |
| COC(=O)Cc1c(C)nn(-c2cccnc2)c1-c1sccc1C [Example 2-58] | effectively shortened |
| COC(=O)Cc1c(C)nn(-c2cccnc2)c1-c1cc(C)cs1 [Example 2-59] | effectively shortened |
| COC(=O)Cc1c(C)nn(-c2cccnc2)c1-c1ccc(Cl)s1 [Example 2-60] | effectively shortened |
| COC(=O)Cc1c(C)nn(-c2cccnc2)c1-c1ccc(C)s1 [Example 2-61] | effectively shortened |
| COC(=O)Cc1c(C)nn(-c2cccnc2)c1-c1ccc(OC)nc1 [Example 2-62] | effectively shortened |
| COC(=O)Cc1c(C)nn(-c2cccnc2)c1-c1ccsc1 [Example 2-63] | effectively shortened |
| COC(=O)Cc1c(C)nn(-c2cnccc2[S+](C)[O-])c1-c1ccc(Cl)cc1 (stereo not drawn) [Example 2-64] | effectively shortened |
| COC(=O)Cc1c(C)nn(-c2cnccc2C)c1-c1ccc2c(c1)OCO2 [Example 2-66] | effectively shortened |
| COC(=O)Cc1c(C)nn(-c2cnccc2C)c1-c1cc(Cl)cc(Cl)c1 [Example 2-68] | effectively shortened |
| COC(=O)Cc1c(C)nn(-c2cccnc2)c1-c1ccc(O)nc1 [Example 2-70] | effectively shortened |
| COC(=O)Cc1c(C)nn(-c2cnccc2[S+](C)[O-])c1-c1ccccc1 (stereo not drawn) [Example 2-71] | effectively shortened |
| COC(=O)Cc1cnn(-c2cccnc2)c1-c1ccccc1 [Example 2-72] | effectively shortened |
| COC(=O)Cc1cnn(-c2cnccc2C)c1-c1ccccc1 [Example 2-73] | effectively shortened |
| CCc1nn(-c2cccnc2)c(-c2ccccc2)c1CC(=O)OC [Example 2-74] | effectively shortened |
| COC(=O)Cc1c(C(F)F)nn(-c2cccnc2)c1-c1ccccc1 [Example 2-79] | effectively shortened |

| Compound | longitudinal growth (culm length) of summer wheat |
| --- | --- |
| CCCc1nn(-c2cccnc2)c(-c2ccc(Cl)cc2)c1CC(=O)OC [Example 2-89] | effectively shortened |
| COC(=O)Cc1c(C)nn(-c2cccnc2)c1-c1ccccn1 [Example 2-109] | effectively shortened |
| COC(=O)Cc1c(C)nn(-c2cccnc2)c1-c1ccc(Cl)cn1 [Example 2-110] | effectively shortened |
| COC(=O)Cc1c(C)nn(-c2cccnc2)c1-c1ccc(C)cn1 [Example 2-113] | effectively shortened |
| COC(=O)Cc1c(C)nn(-c2cccnc2)c1-c1ccc(Cl)cc1Cl [Example 2-114] | effectively shortened |
| COC(=O)Cc1c(C)nn(-c2cnccc2C)c1-c1ccc(C)c(C)c1 [Example 2-116] | effectively shortened |
| COC(=O)Cc1c(C)nn(-c2cccnc2)c1-c1cccc(C)c1 [Example 2-119] | effectively shortened |
| COC(=O)Cc1c(C)nn(-c2cccnc2)c1-c1ccc(F)cc1 [Example 2-120] | effectively shortened |
| COC(=O)Cc1c(C)nn(-c2cccnc2)c1-c1ccc(C(C)=O)cc1 [Example 2-121] | effectively shortened |
| COC(=O)Cc1c(C)nn(-c2cccnc2)c1-c1ccc(C(C)(C)C)cc1 [Example 2-122] | effectively shortened |
| COC(=O)Cc1c(C)nn(-c2cccnc2)c1-c1ccc(Cl)c(C)c1 [Example 2-123] | effectively shortened |
| CCCc1nn(-c2cnccc2C)c(-c2ccc(Cl)cc2)c1CC(=O)OC [Example 2-124] | effectively shortened |
| COC(=O)Cc1c(C)nn(-c2cccnc2)c1-c1cccnc1 [Example 2-125] | effectively shortened |
| COC(=O)Cc1c(C)nn(-c2cccnc2)c1-c1ccncc1 [Example 2-126] | effectively shortened |
| COC(=O)Cc1c(C(=O)OC)nn(-c2cccnc2)c1-c1ccccc1 [Example 2-127] | effectively shortened |
| COC(=O)Cc1c(C)nn(-c2cccnc2)c1-c1ccc(C)nc1 [Example 2-128] | effectively shortened |
| COC(=O)Cc1c(C)nn(-c2cnccc2C)c1-c1cccc(Cl)c1Cl [Example 2-131] | effectively shortened |
| COC(=O)Cc1cnn(-c2cnccc2C)c1-c1ccc(Cl)cc1 [Example 2-133] | effectively shortened |
| COC(=O)Cc1c(C)nn(-c2cccnc2)c1-c1ccc(Cl)nc1 [Example 2-134] | effectively shortened |
| COC(=O)Cc1c(C)nn(-c2cccnc2C)c1-c1ccccc1 [Example 2-135] | effectively shortened |
| COC(=O)Cc1c(C)nn(-c2cccnc2)c1-c1cc(C)ccn1 [Example 2-136] | effectively shortened |
| COC(=O)Cc1c(C)nn(-c2cccnc2)c1-c1ccc(C(F)(F)F)cn1 [Example 2-144] | effectively shortened |

| Compound | longitudinal growth (culm length) of summer wheat |
| --- | --- |
| COC(=O)Cc1c(C)nn(-c2cccnc2)c1-c1cccc(OC)n1 [Example 2-145] | effectively shortened |
| COC(=O)Cc1c(C2CC2)nn(-c2cccnc2)c1-c1ccc(Cl)cc1 [Example 2-146] | effectively shortened |
| COC(=O)Cc1c(C#N)nn(-c2cccnc2)c1-c1ccc(Cl)cc1 [Example 2-147] | effectively shortened |
| COC(=O)Cc1c(C=O)nn(-c2cccnc2)c1-c1ccc(Cl)cc1 [Example 2-165] | effectively shortened |
| COC(=O)Cc1c(CO)nn(-c2cccnc2)c1-c1ccc(Cl)cc1 [Example 2-184] | effectively shortened |
| CCOC(=O)Cc1c(C)nn(-c2cnccc2C)c1-c1ccc(Cl)cc1 [Example 3-1] | effectively shortened |
| CCCOC(=O)Cc1c(C)nn(-c2cccnc2)c1-c1ccccn1 [Example 3-34] | effectively shortened |
| Cc1nn(-c2cccnc2)c(-c2ccccc2)c1CC(=O)OC(C)C [Example 3-36] | effectively shortened |
| Cc1nn(-c2cccnc2)c(-c2ccccn2)c1CC(=O)OC(C)C [Example 3-48] | effectively shortened |
| Cc1nn(-c2cccnc2)c(-c2ccccc2)c1CC(=O)OCc1ccccc1 [Example 3-50] | effectively shortened |
| C#CCOC(=O)Cc1c(C)nn(-c2cccnc2)c1-c1ccccc1 [Example 3-54] | effectively shortened |
| C#CCOC(=O)Cc1c(C)nn(-c2cccnc2)c1-c1ccc(Cl)cc1 [Example 3-55] | effectively shortened |
| C#CCOC(=O)Cc1c(C)nn(-c2cccnc2)c1-c1ccc(OC)nc1 [Example 3-63] | effectively shortened |
| C#CCOC(=O)Cc1cnn(-c2cccnc2)c1-c1ccccc1 [Example 3-64] | effectively shortened |
| C#CCOC(=O)Cc1c(C)nn(-c2cccnc2)c1-c1ccc(F)cc1 [Example 3-68] | effectively shortened |
| C#CCOC(=O)Cc1c(C)nn(-c2cccnc2)c1-c1ccccn1 [Example 3-73] | effectively shortened |
| C#CCOC(=O)Cc1c(C)nn(-c2cccnc2)c1-c1ccncc1 [Example 3-74] | effectively shortened |
| C#CCOC(=O)Cc1c(C)nn(-c2cnccc2C)c1-c1ccc(Cl)cc1 [Example 3-75] | effectively shortened |
| Cc1nn(-c2cccnc2)c(-c2ccccc2)c1CC(=O)OCC1CC1 [Example 3-77] | effectively shortened |
| Cc1nn(-c2cccnc2)c(-c2ccc(Cl)cc2)c1CC(=O)OCC1CC1 [Example 3-78] | effectively shortened |
| Cc1csc(-c2c(CC(=O)OCC3CC3)c(C)nn2-c2cccnc2)c1 [Example 3-85] | effectively shortened |
| COc1ccc(-c2c(CC(=O)OCC3CC3)c(C)nn2-c2cccnc2)cn1 [Example 3-86] | effectively shortened |
